Laboratory results as given in ChEMBL document CHEMBL5096216, “Rational Design, Synthesis, and Biological Evaluation of Novel S1PR2 Antagonists for Reversing 5-FU-Resistance in Colorectal Cancer” (J Med Chem, 2022).

Legend:
SW620/5-FU [1] = assay: Antitumor activity against human SW620/5-FU cells xenografted in nude mouse assessed as tumor wight at 1 mg/kg/day, iv in presence of 5-FU (reference value: 1.3 +/-0.6 g); format: functional
HT-29 = assay: cells; conditions: Homo sapiens, HT-29, 48 h
Description: Reversal of 5-FU resistance in human HT-29 cells assessed as reduction in 5-Fluorouracil IC50 at 5 uM incubated for 48 hrs (Rvb = 2768.36 +/- 89.25 %)

[2] = Metabolic stability in human plasma assessed as half life at 1 mg/ml incubated for 48 hrs by HPLC analysis; format: ADME, cell-free
SW620/5-FU [3] = assay: Induction of apoptosis in human SW620/5-FU cells assessed as viable cells at 10 uM incubated for 24 hrs by Annexin-V/PI staining based flow cytometry assay (reference value: 94.3%); format: functional; conditions: read-out: Activity
SW620/5-FU [4] = assay: Reversal of 5-FU resistance in human SW620/5-FU cells assessed as fold reduction in 5-Fluorouracil IC50 at 5 uM incubated for 48 hrs; format: functional
SW620/5-FU [5] = assay: Induction of apoptosis in human SW620/5-FU cells assessed as early apoptotic cells at 20 uM incubated for 24 hrs by Annexin-V/PI staining based flow cytometry assay (reference value: 2.73%); format: functional
SW620/5-FU [6] = assay: Upregulation of H3K27me3 expression in human SW620/5-FU cells incubated for 12 hrs by Western blot analysis; format: functional, cell-based; conditions: dose 2.5-20 µM, DDE = dose-dependent effect
SW620/5-FU [7] = assay: Antitumor activity against human SW620/5-FU cells xenografted in nude mouse assessed as tumor wight at 10 mg/kg/day, iv in presence of 5-FU (reference value: 1.3 +/- 0.6 g); format: functional
SW620/5-FU [8] = assay: Induction of apoptosis in human SW620/5-FU cells assessed as necrotic cells at 20 uM incubated for 24 hrs in presence of 5-FU by Annexin-V/PI staining based flow cytometry assay (reference value: 0%); format: functional
SW620/5-FU [9] = assay: Induction of apoptosis in human SW620/5-FU cells assessed as late apoptotic cells at 20 uM incubated for 24 hrs by Annexin-V/PI staining based flow cytometry assay (reference value: 2.97%); format: functional

IC50 (HT-29): 21.8 µM
half-life at 1 mg/ml [2]: > 48 h
Compound: CCC(CC)CN1CCN(C(=O)Nc2cc(Oc3ccc(F)cc3)cc(Oc3ccc(C(=O)NC)cc3)c2)CC1
Activity (SW620/5-FU [1]): 0.6 g
viability at 10 µM (SW620/5-FU [3]): 93.8%
fold change (FC) (SW620/5-FU [4]): 88
Activity (SW620/5-FU [5]): 3.76%
Activity (SW620/5-FU [6]): Dde
Activity (SW620/5-FU [7]): 0.3 g
Activity (SW620/5-FU [8]): 0.076%
Activity (SW620/5-FU [9]): 4.01%
